# Source: US8802597B2, “Herbicidal pyrimidines” (E I du Pont de Nemours and Company, priority 2003, dated 2014)
# Where two headings read alike, the source gives them in different places.
# How the values were obtained:
# Type in all cases: in vivo
# [1] = test system: velvetleaf (Abutilon theophrasti); test: Test A pre/postemergence; details: for pest or weed control at 125 g/ha / pest or weed control at 500 g/ha: Abutilon theophrasti, 240 h, read-out: Plant response rating, Velvetleaf
# Summary of the method: (§1)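 Visual injury scores on a 0–100 scale, 100 being complete control, were assigned roughly ten days after treatment by comparison with untreated greenhouse controls. Test chemicals, formulated with surfactant in non-phytotoxic solvent, were sprayed onto soil preemergence and onto 1–2-leaf plants 2–10 cm tall postemergence.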
# [2] = test system: morningglory (Ipomoea spp.); test: Test A pre/postemergence; details: for pest or weed control at 125 g/ha / pest or weed control at 500 g/ha: Ipomoea, 240 h, read-out: Plant response rating, Morningglory
# Summary of the method: as §1
# [3] = test system: redroot pigweed (Amaranthus retroflexus); test: Test A pre/postemergence; details: for pest or weed control at 125 g/ha / pest or weed control at 500 g/ha: Amaranthus retroflexus, 240 h, read-out: Plant response rating, Pigweed
# Summary of the method: as §1
# [4] = test system: barnyardgrass (Echinochloa crus-galli); test: Test A pre/postemergence
# Summary of the method: as §1
# [5] = test system: giant foxtail (Setaria faberi); test: Test A pre/postemergence
# Summary of the method: as §1
# [6] = test system: crabgrass (Digitaria sanguinalis); test: Test A pre/postemergence
# Summary of the method: as §1
# [7] = test system: velvetleaf (Abutilon theophrasti); test: Test C pre/postemergence; details: Preemergence, scale 0 to 100, 0 no effect, 100 complete control
# Source text: (§2) Seeds or nutlets of plant species selected from bermudagrass (Cynodon dactylon), Surinam grass (Brachiaria decumbens), cocklebur (Xanthium strumarium), corn (Zea mays), crabgrass (Digitaria sanguinalis), woolly cupgrass (Eriochloa villosa), giant foxtail (Setaria faberii), goosegrass (Eleusine indica), johnsongrass (Sorghum halepense), kochia (Kochia scoparia), lambsquarters (Chenopodium album), morningglory (Ipomoea coccinea), eastern black nightshade (Solanum ptycanthum), yellow nutsedge (Cyperus esculentus), pigweed (Amaranthus retroflexus), common ragweed (Ambrosia elatior), soybean (Glycine max), common (oilseed) sunflower (Helianthus annuus), and velvetleaf (Abutilon theophrasti) were planted and treated preemergence with test chemicals formulated in a non-phytotoxic solvent mixture which included a surfactant.
# (§3) At the same time, plants selected from these crop and weed species and also winter barley (Hordeum vulgare), blackgrass (Alopecurus myosuroides), canarygrass (Phalaris minor), chickweed (Stellaria media), downy brome (Bromus tectorum), green foxtail (Setaria viridis), Italian ryegrass (Lolium multiflorum), wheat (Triticum aestivum), wild oat (Avena fatua) and windgrass (Apera spica-venti) were treated with postemergence applications of some of the test chemicals formulated in the same manner. Plants ranged in height from 2 to 18 cm (1- to 4-leaf stage) for postemergence treatments. Plant species in the flooded paddy test consisted of rice (Oryza sativa), umbrella sedge (Cyperus difformis), duck salad (Heteranthera limosa) and barnyardgrass (Echinochloa crus-galli) grown to the 2-leaf stage for testing. Treated plants and controls were maintained in a greenhouse for 12 to 14 days, after which time all species were compared to controls and visually evaluated. Plant response ratings, summarized in Table C, are based on a scale of 0 to 100 where 0 is no effect and 100 is complete control. A dash (-) response means no test result.
# [8] = test system: lambsquarters (Chenopodium album); test: Test C pre/postemergence; details: Preemergence
# Source text: as §2, §3
# [9] = test system: giant foxtail (Setaria faberii); test: Test C pre/postemergence; details: Preemergence
# Source text: as §2, §3
# [10] = test system: goosegrass (Eleusine indica); test: Test C pre/postemergence; details: Preemergence
# Source text: as §2, §3
# [11] = post-emergence, Postemergence, 125 g ai/ha, 0 to 100 scale (0 no effect, 100 complete control)
# [12] = post-emergence, Postemergence, 500 g ai/ha, 0 to 100 scale (0 no effect, 100 complete control)
# [13] = pre-emergence, Preemergence, 125 g ai/ha, 0 to 100 scale where 0 is no effect and 100 is complete control, approximately ten days
# [14] = pre-emergence, Preemergence, 500 g ai/ha, 0 to 100 scale where 0 is no effect and 100 is complete control, approximately ten days
# [15] = Preemergence, 125 g ai/ha, 0 to 100 scale where 0 is no effect and 100 is complete control, approximately ten days
# [16] = Postemergence, 500 g ai/ha, 0 to 100 scale (0 no effect, 100 complete control)
# [17] = 16 g ai/ha, scale 0 to 100, 0 no effect, 100 complete control
# [18] = 31 g ai/ha, scale 0 to 100, 0 no effect, 100 complete control
# [19] = Postemergence, 125 g ai/ha, 0 to 100 scale (0 no effect, 100 complete control)
# [20] = Preemergence, 500 g ai/ha, 0 to 100 scale where 0 is no effect and 100 is complete control, approximately ten days
# [21] = 62 g ai/ha, scale 0 to 100, 0 no effect, 100 complete control
structure (smiles),measurement,setting,value
"Nc1nc(C2CC2)nc(C(=O)[O-])c1Cl.[Na+] [Compound 77, 6-amino-5-chloro-2-cyclopropyl-4-pyrimidinecarboxylic acid monosodium salt]",pest or weed control at 125 g/ha,[1]; [11],95%
same,pest or weed control at 500 g/ha,[1]; [12],100%
same,pest or weed control at 125 g/ha,[1]; [13],100%
same,pest or weed control at 500 g/ha,[1]; [14],100%
same,pest or weed control at 125 g/ha,[2]; [11],95%
same,pest or weed control at 500 g/ha,[2]; [12],100%
same,pest or weed control at 125 g/ha,[2]; [13],100%
same,pest or weed control at 500 g/ha,[2]; [14],100%
same,pest or weed control at 125 g/ha,[3]; [11],95%
same,pest or weed control at 500 g/ha,[3]; [12],95%
same,pest or weed control at 125 g/ha,[3]; [13],85%
same,pest or weed control at 500 g/ha,[3]; [14],95%
same,pest or weed control at 125 g/ha,"[4]; Echinochloa crus-galli, post-emergence, 240 h, Postemergence, 125 g ai/ha, 0 to 100 scale (0 no effect, 100 complete control), read-out: Plant response rating, Barnyardgrass",90%
same,pest or weed control at 500 g/ha,"[4]; Echinochloa crus-galli, post-emergence, 240 h, Postemergence, 500 g ai/ha, 0 to 100 scale (0 no effect, 100 complete control), read-out: Plant response rating, Barnyardgrass",90%
same,pest or weed control at 500 g/ha,"[4]; Echinochloa crus-galli, pre-emergence, 240 h, Preemergence, 500 g ai/ha, 0 to 100 scale where 0 is no effect and 100 is complete control, approximately ten days, read-out: Plant response rating, Barnyardgrass",100%
same,"Plant response rating, Barnyardgrass",[4]; [15],90
same,"Plant response rating, Foxtail, Giant",[5]; [15],75
same,pest or weed control at 125 g/ha,"[5]; Setaria faberi, post-emergence, 240 h, Postemergence, 125 g ai/ha, 0 to 100 scale (0 no effect, 100 complete control), read-out: Plant response rating, Foxtail, Giant",85%
same,pest or weed control at 500 g/ha,"[5]; Setaria faberi, post-emergence, 240 h, Postemergence, 500 g ai/ha, 0 to 100 scale (0 no effect, 100 complete control), read-out: Plant response rating, Foxtail, Giant",90%
same,pest or weed control at 500 g/ha,"[5]; Setaria faberi, pre-emergence, 240 h, Preemergence, 500 g ai/ha, 0 to 100 scale where 0 is no effect and 100 is complete control, approximately ten days, read-out: Plant response rating, Foxtail, Giant",95%
same,pest or weed control at 125 g/ha,"[6]; Digitaria sanguinalis, post-emergence, 240 h, Postemergence, 125 g ai/ha, 0 to 100 scale (0 no effect, 100 complete control), read-out: Plant response rating, Crabgrass",70%
same,pest or weed control at 125 g/ha,"[6]; Digitaria sanguinalis, pre-emergence, 240 h, Preemergence, 125 g ai/ha, 0 to 100 scale where 0 is no effect and 100 is complete control, approximately ten days, read-out: Plant response rating, Crabgrass",70%
same,pest or weed control at 500 g/ha,"[6]; Digitaria sanguinalis, pre-emergence, 240 h, Preemergence, 500 g ai/ha, 0 to 100 scale where 0 is no effect and 100 is complete control, approximately ten days, read-out: Plant response rating, Crabgrass",80%
same,"Plant response rating, Crabgrass",[6]; [16],90
same,pest or weed control at 62 g/ha,"[7]; Abutilon theophrasti, pre-emergence, 62 g ai/ha, read-out: Plant response rating, Velvetleaf",85%
same,"Plant response rating, Velvetleaf",[7]; 16 g ai/ha,10
same,"Plant response rating, Velvetleaf",[7]; 31 g ai/ha,30
same,"Plant response rating, Lambsquarters",[8]; [17],0
same,"Plant response rating, Lambsquarters",[8]; [18],0
same,"Plant response rating, Lambsquarters","[8]; 125 g ai/ha, scale 0 to 100",40
same,"Plant response rating, Foxtail, Giant",[9]; [17],0
same,pest or weed control at 31 g/ha,"[9]; Setaria faberi, pre-emergence, 31 g ai/ha, scale 0 to 100, 0 no effect, 100 complete control, read-out: Plant response rating, Foxtail, Giant",0%
same,pest or weed control at 62 g/ha,"[9]; Setaria faberi, pre-emergence, 62 g ai/ha, scale 0 to 100, 0 no effect, 100 complete control, read-out: Plant response rating, Foxtail, Giant",0%
same,pest or weed control at 125 g/ha,"[9]; Setaria faberi, pre-emergence, 125 g ai/ha, scale 0 to 100, read-out: Plant response rating, Foxtail, Giant",0%
same,pest or weed control at 31 g/ha,"[10]; Eleusine indica, pre-emergence, 31 g ai/ha, scale 0 to 100, 0 no effect, 100 complete control, read-out: Plant response rating, Goosegrass",0%
same,pest or weed control at 62 g/ha,"[10]; Eleusine indica, pre-emergence, 62 g ai/ha, scale 0 to 100, 0 no effect, 100 complete control, read-out: Plant response rating, Goosegrass",0%
same,"Plant response rating, Goosegrass",[10]; [17],0
same,"Plant response rating, Goosegrass","[10]; 125 g ai/ha, scale 0 to 100",0
CCCOC(=O)c1nc(C2CC2)nc(N)c1Cl [Compound 75],"Plant response rating, Velvetleaf",[1]; [19],85
same,"Plant response rating, Velvetleaf",[1]; [16],100
same,"Plant response rating, Velvetleaf",[1]; [15],80
same,"Plant response rating, Velvetleaf",[1]; [20],95
same,"Plant response rating, Morningglory",[2]; [19],90
same,"Plant response rating, Morningglory",[2]; [16],90
same,"Plant response rating, Morningglory",[2]; [15],95
same,"Plant response rating, Morningglory",[2]; [20],100
same,"Plant response rating, Pigweed",[3]; [19],90
same,"Plant response rating, Pigweed",[3]; [16],100
same,"Plant response rating, Pigweed",[3]; [15],90
same,"Plant response rating, Pigweed",[3]; [20],95
same,"Plant response rating, Barnyardgrass",[4]; [19],85
same,"Plant response rating, Barnyardgrass",[4]; [16],90
same,"Plant response rating, Barnyardgrass",[4]; [15],70
same,"Plant response rating, Barnyardgrass",[4]; [20],95
same,"Plant response rating, Foxtail, Giant",[5]; [19],90
same,"Plant response rating, Foxtail, Giant",[5]; [16],90
same,"Plant response rating, Foxtail, Giant",[5]; [15],75
same,"Plant response rating, Foxtail, Giant",[5]; [20],90
same,"Plant response rating, Crabgrass",[6]; [19],80
same,"Plant response rating, Crabgrass",[6]; [16],90
same,"Plant response rating, Crabgrass",[6]; [15],85
same,"Plant response rating, Crabgrass",[6]; [20],90
same,"Plant response rating, Velvetleaf",[7]; 16 g ai/ha,5
same,"Plant response rating, Velvetleaf",[7]; 31 g ai/ha,60
same,"Plant response rating, Velvetleaf",[7]; 62 g ai/ha,85
same,"Plant response rating, Lambsquarters",[8]; [17],70
same,"Plant response rating, Lambsquarters",[8]; [18],75
same,"Plant response rating, Lambsquarters",[8]; [21],80
same,"Plant response rating, Lambsquarters","[8]; 125 g ai/ha, scale 0 to 100",100
same,"Plant response rating, Foxtail, Giant",[9]; [17],0
same,"Plant response rating, Foxtail, Giant",[9]; [18],0
same,"Plant response rating, Foxtail, Giant",[9]; [21],0
same,"Plant response rating, Foxtail, Giant","[9]; 125 g ai/ha, scale 0 to 100",10
same,"Plant response rating, Goosegrass",[10]; [17],0
same,"Plant response rating, Goosegrass",[10]; [18],0
same,"Plant response rating, Goosegrass",[10]; [21],0
same,"Plant response rating, Goosegrass","[10]; 125 g ai/ha, scale 0 to 100",30
